Format in all cases: cell-based
The test system of one assay is S. aureus Oxford. The assay can be described thus: MIC against S. aureus Oxford. On the procedure:
(§1) The MIC (μg/ml) of compounds 1, 3 and 4 against various organisms was determined.

The test system of a further assay is S. aureus WCUH29. The assay can be described thus: MIC against S. aureus WCUH29. On the procedure: as §1
The test system of a further assay is E. faecalis I. The assay can be described thus: MIC against E. faecalis I. How it is done:
as §1

In the next assay the test system is S. aureus Carter 37. Put plainly: MIC against S. aureus Carter 37. How it is done:
as §1

For the next assay, the system named is M. catarrhalis Ravasio. Put plainly: MIC against M. catarrhalis Ravasio. On the procedure:
as §1

A further assay has as its system S. pneumoniae R6. Put plainly: MIC against S. pneumoniae R6. How it is done: as §1
The mark [1] stands for this setting: Staphylococcus aureus, read-out: MIC.
Setting [2] is: Staphylococcus aureus, CARTER37, read-out: MIC.
The mark [3] stands for this setting: Enterococcus faecalis, read-out: MIC.
[4] abbreviates: Streptococcus pneumoniae, read-out: MIC.

The record followed here is US6602882B1, “Quinoline derivatives and their use as antibacterial agents” (SmithKline Beecham p.l.c., priority 1998, dated 2003).

Values after ≈ are worked out from the molar mass of the structure shown. Where two headings read alike, the source gives them in different places.

In general, MIC refers to the least concentration at which growth counts as inhibited. As to `CCCCCCCN1CC[C@H](NC(=O)Nc2ccnc3ccc(OC)cc23)[C@H](CO)C1.O=C(O)C(=O)O` (relative stereo) [Example 5, N-(cis-1-Heptyl-3-(R/S)-hydroxymethyl-4-(S/R)-piperidyl)-N′-(6-methoxyquinolin-4-yl)urea oxalate], the MIC was 1 µg/mL in the assay with S. aureus Oxford, 1 µg/mL with S. aureus WCUH29 and 4 µg/mL against E. faecalis I.
For the molecule `CCCCCCCN1CCC(NC(=O)Nc2ccnc3ccc(OC)nc23)CC1.O=C(O)C(=O)O` [Example 7], the MIC in the assay on S. aureus Oxford stood at 1 µg/mL; in the assay on S. aureus WCUH29 it was 1 µg/mL; against E. faecalis I it was 8 µg/mL.
For the molecule `CCCCCC1CCC2CC(OC(=O)Nc3ccnc4ccc(OC)cc34)CCN2C1` (centres unmarked) [Example 1, 1-Aza-8-(ax)-[(6-methoxyquinolin-4-yl)-aminocarbonyloxy]-3-(ax)-n-pentyl-bicyclo[4,4,0]decane], the MIC amounted to 2 µg/mL (≈ 4.7 µM) against S. aureus Oxford; 4 µg/mL (≈ 9.4 µM) against S. aureus WCUH29; 8 µg/mL (≈ 18.8 µM) in the assay on S. aureus Carter 37; 8 µg/mL (≈ 18.8 µM) in the assay with E. faecalis I; 32 µg/mL (≈ 75.2 µM) in the assay with M. catarrhalis Ravasio; 1 µg/mL (≈ 2.35 µM) against S. pneumoniae R6.
For `CCCCCCCN1CC[C@H](NC(=O)Nc2ccnc3ccc(OC)nc23)[C@H](CO)C1.O=C(O)C(=O)O` (relative stereo) [Example 6, N-(cis-1-Heptyl-3-(R/S)-hydroxymethyl-4-(S/R)-piperidyl)-N′-(6-methoxy-[1,5]-naphthyridin-4-yl)urea Oxalate], the figures for the MIC against S. aureus Oxford, in the assay with S. aureus WCUH29 and with E. faecalis I were 0.5 µg/mL, 1 µg/mL and 8 µg/mL, respectively.
As to `CCCCCCCN1CCC(OC(=O)Nc2ccnc3ccc(OC)cc23)CC1` [Example 3, 1-Heptyl-4-[N-(6-methoxyquinolin-4-yl)aminocarbonyloxy]piperidine], the MIC is 8 µg/mL (≈ 20 µM) in the assay on S. aureus Oxford (setting [1]); 4 µg/mL (≈ 10 µM) with S. aureus WCUH29 (setting [1]); 8 µg/mL (≈ 20 µM) in the assay with S. aureus Carter 37 (setting [2]); 8 µg/mL (≈ 20 µM) with E. faecalis I (setting [3]); 16 µg/mL (≈ 40 µM) in the assay with M. catarrhalis Ravasio (Moraxella catarrhalis, read-out: MIC); 4 µg/mL (≈ 10 µM) in the assay with S. pneumoniae R6 (setting [4]).
In the case of `CCCCCCCN1CCC(NC(=O)Nc2ccnc3ccc(OC)cc23)CC1` [Example 4, 1-Heptyl-4-(6-methoxyquinolin4-yl)ureidopiperidine], the MIC in the assay with S. aureus Oxford (setting [1]) was 16 µg/mL (≈ 40.1 µM); with S. aureus WCUH29 (setting [1]) it was 8 µg/mL (≈ 20.1 µM); in the assay on S. aureus Carter 37 (setting [2]), 16 µg/mL (≈ 40.1 µM); in the assay with E. faecalis I (setting [3]) it was 8 µg/mL (≈ 20.1 µM); in the assay on S. pneumoniae R6 (setting [4]) it was 2 µg/mL (≈ 5.02 µM).
